Reference: the METLIN SMRT retention time set (Domingo-Almenara et al. 2019)

Assay: gradient 5% acetonitrile 3 min, to 50% in 2 min, to 85% in 15 min, held 3 min, 100 µL/min
Conditions: column: Zorbax Extend-C18 2.1 x 50 mm; eluents: water / acetonitrile, 0.1% formic acid
In short: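 Each retention time is based on an adduct peak selected computationally and verified by manual inspection. Measurements used HPLC–quadrupole time-of-flight mass spectrometry in positive and negative ionization mode on mixtures of ~100 pure standards. Chromatography ran on a Zorbax Extend-C18 column (2.1 × 50 mm, 1.8 μm) at 100 μL/min with water and acetonitrile, each containing 0.1% formic acid, and dead and dwell volumes of 40 μL and 900 μL.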

Row | RP-LC retention time | SMILES
1 | 846 s | CC(C)NC(=O)c1ccc(OCC2CCCN(C(=O)c3cccc(F)c3)C2)cc1 (configuration not stated)
2 | 668 s | O=[N+]([O-])c1c(NCCCO)cc(NCc2ccc3c(c2)OCO3)c2nonc12
3 | 809 s | CC(OC(=O)Nc1cccc(Cl)c1)C(=O)O (configuration not stated)
4 | 669 s | COc1ccc(N2CC(c3nc(-c4ccccc4)no3)CC2=O)cc1OC (configuration not stated)
5 | 1110 s | O=c1c2cc3c(cc2nc(SCc2nc(-c4cccc(F)c4)no2)n1CC1CCCO1)OCO3 (configuration not stated)
6 | 941 s | Cc1cccc(N2CCN([C@H]3CS(=O)(=O)C[C@@H]3S(=O)(=O)c3ccc(F)cc3)CC2)c1
7 | 981 s | O=C(c1ccc(Cl)cc1Cl)N1CCN(c2cc(-c3ccc(Cl)cc3)[nH]n2)CC1
8 | 762 s | COc1ccc(Cl)c2c(=O)c3c([nH]c12)CCN(CC(=O)Nc1ccc(C)c(Cl)c1)C3
9 | 624 s | CCCN1CCN(c2cc(C(=O)O)c3cc(NS(=O)(=O)c4ccc(OCC)cc4)ccc3n2)CC1
10 | 634 s | CC(C)CNC(=O)N1CCN(Cc2nc3cccnc3n2-c2cccc(F)c2)CC1
11 | 792 s | Cc1cc(NC(=O)c2cc3c(=O)n4cccc(C)c4nc3s2)no1
12 | 908 s | COc1ccc(N2CCN(c3cc(SCC(=O)NCc4ccc(Cl)cc4)ncn3)CC2)cc1
13 | 1230 s | CCCn1c(=O)c(C)nc2cc(-c3noc(-c4ccc(F)c(F)c4)n3)ccc21
14 | 663 s | Cc1c(-c2cccc(NC(=O)C3CCCCC3)c2)nc2ncccn12
15 | 660 s | O=C(Cc1ccc(Cl)cc1)NCC(=O)Nc1nc2ccccc2[nH]1
16 | 555 s | CCn1c(=O)c(C(=O)NCc2cccnc2)nc2cccnc21
17 | 1070 s | O=C(Nc1ccc2c(c1)CCN2S(=O)(=O)c1ccccc1)Nc1cc(F)ccc1F
18 | 633 s | O=C1NC2CCCCC2=C1CC(=O)N1CCCCC1 (configuration not stated)
19 | 1060 s | Cc1ccc(NC(=O)N2CC(c3nc(CCOCC4CCCC4)no3)C2)cc1C
20 | 805 s | COc1cccc(Cn2c(=O)c3cnc(-c4ccncc4)nc3n(C)c2=O)c1
21 | 700 s | COC(=O)c1ccc(NC(=O)C2CC(=O)N(c3ccc4c(c3)CCN4C(C)=O)C2)cc1 (configuration not stated)
22 | 630 s | COc1ccccc1NC(=O)N1CCN(CCn2c(C(F)(F)F)nc3cccnc32)CC1
23 | 819 s | O=C(Cn1nnc2ccccc2c1=O)NCCc1c[nH]c2ccc(Cl)cc12

Row | RP-LC retention time | SMILES
24 | 869 s | O=S(=O)(NCCOc1ccccc1)c1ccccc1Cl
25 | 920 s | COc1ccc(-c2noc(Cn3ccn(-c4cc(C)ccc4C)c(=O)c3=O)n2)cc1
26 | 670 s | CNC(=O)[C@@H]1C[C@H](Oc2ccccc2)CN1C(=O)c1ccco1
27 | 1070 s | O=c1ccc(-c2nc(-c3ccc(F)cc3)no2)nn1Cc1ccccc1F
28 | 892 s | CCN1CCCCc2cc(C(=O)NCC(F)F)sc21
29 | 682 s | CC(C)NC(=O)Cn1ccn2nc(-c3ccc(F)cc3)c(CO)c2c1=O
30 | 840 s | O=[N+]([O-])c1ccccc1S(=O)(=O)c1ccccc1[N+](=O)[O-]
31 | 675 s | O=C(CC1CCCCC1)N1CCN(c2nc(CN3CCCCC3)cs2)CC1
32 | 856 s | Cc1cccc(OCC(=O)Nc2ccc3c(c2)Sc2ncccc2C(=O)N3C)c1
33 | 696 s | Cc1cc(=O)n2c(-c3cccc(NC(=O)Cc4cccs4)c3)csc2n1
34 | 691 s | CC(=O)N1CCc2cc(CNS(=O)(=O)c3ccccc3)ccc21
35 | 754 s | CC(C)CN1C(=O)c2cccn2CC1C(=O)NCc1cccs1 (configuration not stated)
36 | 1120 s | CCS(=O)(=O)c1nc2ccc(NS(=O)(=O)c3ccc(C4CCCCC4)cc3)cc2s1
37 | 746 s | Cc1nc(Nc2ncc3c(n2)CC(c2ccc(F)cc2)CC3=O)nc2c(C)cccc12 (configuration not stated)
38 | 934 s | COc1ccc(OCC(=O)N2CCCC2c2nc(-c3ccc(OC)cc3)no2)cc1 (configuration not stated)
39 | 874 s | CC(=O)c1cccc(NC(=O)c2noc3c2CCCC3)c1
40 | 709 s | Cc1ccc(Cl)cc1NC(=O)N1CCCC(Cn2cnc3cccnc32)C1 (configuration not stated)
41 | 744 s | O=C(CCCc1nnc2c(=O)n(-c3ccc(Cl)cc3)ccn12)NCCc1c[nH]c2ccccc12
42 | 1130 s | Cc1ccc(C)c(N2CCN(S(=O)(=O)c3ccc(-c4nnc(C5CC5)o4)o3)CC2)c1
43 | 746 s | Cc1ccc(CNC(=O)C2Cn3cccc3C(=O)N2CC(C)C)o1 (configuration not stated)
44 | 684 s | COc1ccccc1NC(=O)C1CCN(c2cc(N3CCSCC3)ncn2)CC1
45 | 910 s | CC(C)Cc1cc(-c2nn3c(Cc4ccccc4)nnc3s2)n[nH]1
46 | 1040 s | CCS(=O)(=O)N1CCCc2cc(C(=O)Nc3cc(OC)c(Cl)cc3OC)ccc21

Row | RP-LC retention time | SMILES
47 | 910 s | COCCCNC(=O)N1CCCCCC1c1cccc(C)c1 (configuration not stated)
48 | 649 s | O=C(c1c[nH]c2ccccc12)N1CCCC1c1nc(-c2ccccc2)n[nH]1 (configuration not stated)
49 | 605 s | O=C(NCc1ccccc1)C(=O)c1c[nH]c2ccccc12
50 | 1030 s | COC(=O)c1cccc(-c2nc(C3CC(=O)N(c4ccc(Cl)cc4)C3)no2)c1 (configuration not stated)
51 | 1110 s | O=C(c1nc2ccccc2s1)N(Cc1ccsc1)Cc1ccco1
52 | 588 s | CSc1ccc(CNC(=O)CCNc2cnc3cnccn23)cc1
53 | 710 s | O=C(Nc1cc(-c2cccnc2)no1)c1ccc2c(c1)OCO2
54 | 937 s | O=C(Cn1nc(S(=O)(=O)c2ccc(Cl)cc2)ccc1=O)N1CCN(c2ccccc2F)CC1
55 | 917 s | Cc1ccc(CN2CC(=O)N(c3cccc(Cl)c3)[C@@H]3CS(=O)(=O)C[C@@H]32)cc1
56 | 896 s | CCC(=O)N(CCC1CCOC(C)(C)C1)Cc1ccc(OC)cc1 (configuration not stated)
57 | 878 s | O=C(c1ccc(Br)o1)N1CCN(c2ccc(=O)n(-c3ccc(Cl)cc3)n2)CC1
58 | 672 s | COCCN1CC2(CCN(S(=O)(=O)c3cc(C)c(C)cc3C)CC2)C1c1ccncc1 (configuration not stated)
59 | 691 s | CC(C)NC(=O)C1CC(=O)N(CCc2c[nH]c3ccc(F)cc23)C1 (configuration not stated)
60 | 822 s | CC(C)CCNC(=O)C1(C)Cn2nc(C(=O)NCc3ccc(Cl)cc3)cc2C(=O)N1C (configuration not stated)
61 | 706 s | Cn1cc(CC(=O)NCc2ccc(Cl)cc2)c2cccnc21
62 | 988 s | O=S(=O)(CCc1ccccc1)N1CCCn2nc(-c3cccs3)cc2C1
63 | 945 s | CC(=O)N1CCc2sc(S(=O)(=O)N3CCN(c4ccccc4Cl)CC3)cc2C1
64 | 618 s | CCOC(=O)C1=C(CN(CC)CC)N(C)C(=O)NC1c1ccccc1 (configuration not stated)
65 | 728 s | Cc1cc(C)n2c(Nc3ccccc3C)c(-c3ccccc3)nc2n1
66 | 853 s | CCN1c2cc(C(=O)NC3CCCCC3)ccc2C(=O)N2CCCCC21 (configuration not stated)
67 | 572 s | Cc1cccc(Nc2nc(C(=O)N3CCC(C(N)=O)CC3)cs2)n1
